Values joined by “and” are separate entries in the source; they are usually repeats but may differ in a detail not shown here. Identical values can stand only once. Inconclusive results and toxic doses are left out.
Test system: CD2F1 mice, L1210 leukemia ip, survival T/C
Assay: NCI In Vivo Anticancer Drug Screen. Data for tumor model L1210 Leukemia (intraperitoneal) in CD2F1 (CDF1) mice
Conditions: higher = longer survival
Outline: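 Each value reflects a quotient of treated over vehicle control outcomes in mice with a transplanted tumor.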

[1] = endpoint: mean survival time, dose: 12.5 mg/kg/injection, schedule: Q01DX009 (ip), vehicle: saline with Tween-80
[2] = endpoint: mean survival time, dose: 25.0 mg/kg/injection, schedule: Q01DX009 (ip), vehicle: saline with Tween-80
[3] = endpoint: mean survival time, dose: 25.0 mg/kg/injection, schedule: Q01DX009 (ip), vehicle: saline
[4] = endpoint: mean survival time, dose: 50.0 mg/kg/injection, schedule: Q01DX009 (ip), vehicle: saline with Tween-80
[5] = endpoint: mean survival time, dose: 50.0 mg/kg/injection, schedule: Q01DX009 (ip), vehicle: saline
[6] = endpoint: mean survival time, dose: 100.0 mg/kg/injection, schedule: Q01DX009 (ip), vehicle: saline with Tween-80
[7] = endpoint: mean survival time, dose: 100.0 mg/kg/injection, schedule: Q01DX009 (ip), vehicle: saline
[8] = endpoint: mean survival time, dose: 200.0 mg/kg/injection, schedule: Q01DX009 (ip), vehicle: saline with Tween-80
[9] = endpoint: mean survival time, dose: 200.0 mg/kg/injection, schedule: Q01DX009 (ip), vehicle: saline
[10] = endpoint: mean survival time, dose: 100.0 mg/kg/injection, schedule: Q04DX003 (ip), vehicle: saline sonified
[11] = endpoint: mean survival time, dose: 200.0 mg/kg/injection, schedule: Q04DX003 (ip), vehicle: saline sonified
[12] = endpoint: mean survival time, dose: 100.0 mg/kg/injection, schedule: Q04DX003 (ip), vehicle: saline
[13] = endpoint: mean survival time, dose: 200.0 mg/kg/injection, schedule: Q04DX003 (ip), vehicle: saline
[14] = endpoint: mean survival time, dose: 400.0 mg/kg/injection, schedule: Q04DX003 (ip), vehicle: saline
[15] = endpoint: mean survival time, dose: 200.0 mg/kg/injection, schedule: Q01DX001 (ip), vehicle: saline with Tween-80
[16] = endpoint: mean survival time, dose: 100.0 mg/kg/injection, schedule: Q04DX003 (ip), vehicle: saline with Tween-80
[17] = endpoint: mean survival time, dose: 50.0 mg/kg/injection, schedule: Q04DX002 (ip), vehicle: saline with Tween-80
[18] = endpoint: mean survival time, dose: 100.0 mg/kg/injection, schedule: Q04DX002 (ip), vehicle: saline with Tween-80
[19] = endpoint: mean survival time, dose: 200.0 mg/kg/injection, schedule: Q04DX002 (ip), vehicle: saline with Tween-80
[20] = endpoint: mean survival time, dose: 400.0 mg/kg/injection, schedule: Q04DX002 (ip), vehicle: saline with Tween-80
[21] = endpoint: mean survival time, dose: 100.0 mg/kg/injection, schedule: Q01DX001 (ip), vehicle: saline with Tween-80
[22] = endpoint: mean survival time, dose: 400.0 mg/kg/injection, schedule: Q01DX001 (ip), vehicle: saline with Tween-80
[23] = endpoint: mean survival time, dose: 400.0 mg/kg/injection, schedule: Q01DX009 (ip), vehicle: saline with Tween-80
[24] = endpoint: mean survival time, dose: 100.0 mg/kg/injection, schedule: Q01DX001 (ip), vehicle: saline
[25] = endpoint: mean survival time, dose: 200.0 mg/kg/injection, schedule: Q01DX001 (ip), vehicle: saline
[26] = endpoint: mean survival time, dose: 100.0 mg/kg/injection, schedule: Q01DX009 (ip), vehicle: other
[27] = endpoint: mean survival time, dose: 200.0 mg/kg/injection, schedule: Q01DX009 (ip), vehicle: other

## COC(=O)C(Cl)(Cl)N=Nc1c(Cl)cc(Cl)c(C)c1Cl
endpoint: mean survival time, dose: 6.25 mg/kg/injection, schedule: Q01DX009 (ip), vehicle: saline with Tween-80
  T/C: 96 % of control
endpoint: mean survival time, dose: 6.25 mg/kg/injection, schedule: Q01DX009 (ip), vehicle: saline
  T/C: 93 % of control
[1]
  T/C: 100 % of control
endpoint: mean survival time, dose: 12.5 mg/kg/injection, schedule: Q01DX009 (ip), vehicle: saline
  T/C: 98 % of control
[2]
  T/C: 97 % of control
[3]
  T/C: 93 % of control
[4]
  T/C: 94 % of control
[5]
  T/C: 98 % of control
[6]
  T/C: 102 % of control
[7]
  T/C: 90 % of control
[8]
  T/C: 86 % of control
[9]
  T/C: 86 % of control

## CS(=O)(=O)OC[C@@H](O)[C@@H](O)COS(C)(=O)=O
[10]
  T/C: 94 % of control and 102 % of control
[11]
  T/C: 100 % of control and 108 % of control
endpoint: mean survival time, dose: 400.0 mg/kg/injection, schedule: Q04DX003 (ip), vehicle: saline sonified
  T/C: 97 % of control and 100 % of control

## CC(=O)NC1CCCC(O)C1 (stereo unspecified)
[12]
  T/C: 102 % of control
[13]
  T/C: 95 % of control
[14]
  T/C: 101 % of control

## C[C@H]1CP(c2ccccc2)(c2ccccc2)(c2ccccc2)O[C@@]1(C(=O)c1ccccc1)c1ccccc1
[15]
  T/C: 91 % of control

## N=c1c(C(=O)OCc2ccccc2)ncc(CCl)n1O
endpoint: median survival time, dose: 25.0 mg/kg/injection, schedule: Q01DX009 (ip), vehicle: saline with Tween-80
  T/C: 100 % of control
endpoint: median survival time, dose: 50.0 mg/kg/injection, schedule: Q01DX009 (ip), vehicle: saline with Tween-80
  T/C: 101 % of control and 102 % of control
endpoint: median survival time, dose: 100.0 mg/kg/injection, schedule: Q01DX009 (ip), vehicle: saline with Tween-80
  T/C: 97 % of control and 109 % of control
endpoint: median survival time, dose: 200.0 mg/kg/injection, schedule: Q01DX009 (ip), vehicle: saline with Tween-80
  T/C: 93 % of control and 97 % of control
endpoint: median survival time, dose: 400.0 mg/kg/injection, schedule: Q01DX009 (ip), vehicle: saline with Tween-80
  T/C: 99 % of control and 100 % of control

## O=C(CBr)CC(=O)Nc1ccccc1
endpoint: mean survival time, dose: 50.0 mg/kg/injection, schedule: Q04DX003 (ip), vehicle: saline with Tween-80
  T/C: 101 % of control
[16]
  T/C: 88 % of control

## CCN=C(N)C(N)=NCC (tested in a mixture with another compound)
endpoint: mean survival time, dose: 25.0 mg/kg/injection, schedule: Q04DX002 (ip), vehicle: saline with Tween-80
  T/C: 98 % of control
[17]
  T/C: 98 % of control
[18]
  T/C: 93 % of control and 98 % of control
[19]
  T/C: 96 % of control and 87 % of control
[20]
  T/C: 93 % of control

## CN(C)C(=NC#N)N(C)C
[7]
  T/C: 102 % of control
[12]
  T/C: 100 % of control
[9]
  T/C: 96 % of control
[13]
  T/C: 95 % of control
endpoint: mean survival time, dose: 400.0 mg/kg/injection, schedule: Q01DX009 (ip), vehicle: saline
  T/C: 96 % of control
[14]
  T/C: 97 % of control

## COc1cc(/C=C/C=C/C(=O)N2CCCCC2)ccc1O
[1]
  T/C: 97 % of control
[2]
  T/C: 100 % of control
[4]
  T/C: 113 % of control

## N#CC(N)=O
endpoint: mean survival time, dose: 100.0 mg/kg/injection, schedule: Q04DX002 (ip), vehicle: saline
  T/C: 97 % of control
endpoint: mean survival time, dose: 200.0 mg/kg/injection, schedule: Q04DX002 (ip), vehicle: saline
  T/C: 91 % of control
endpoint: mean survival time, dose: 400.0 mg/kg/injection, schedule: Q04DX002 (ip), vehicle: saline
  T/C: 94 % of control

## COc1ccccc1N=Nc1c(O)n(-c2ccccc2OC)c(=S)n(-c2ccccc2OC)c1=O
[17]
  T/C: 98 % of control
[21]
  T/C: 93 % of control
[18]
  T/C: 94 % of control
[15]
  T/C: 94 % of control
[19]
  T/C: 102 % of control

## COC(=O)C1(C)CCCC2(C)C1CCC13C(O)C(C(C)C)C1CC23 (stereo unspecified)
[21]
  T/C: 86 % of control
[15]
  T/C: 91 % of control
[22]
  T/C: 97 % of control

## O=NN(CCCl)C(=O)Nc1c[nH]c2ccccc12
endpoint: mean survival time, dose: 177.0 mg/kg/injection, schedule: Q01DX001 (ip), vehicle: saline with Tween-80
  T/C: 96 % of control
endpoint: mean survival time, dose: 177.0 mg/kg/injection, schedule: Q01DX009 (ip), vehicle: saline with Tween-80
  T/C: 98 % of control
endpoint: mean survival time, dose: 265.0 mg/kg/injection, schedule: Q01DX001 (ip), vehicle: saline with Tween-80
  T/C: 97 % of control
endpoint: mean survival time, dose: 265.0 mg/kg/injection, schedule: Q01DX009 (ip), vehicle: saline with Tween-80
  T/C: 101 % of control
[22]
  T/C: 92 % of control
[23]
  T/C: 97 % of control
endpoint: mean survival time, dose: 600.0 mg/kg/injection, schedule: Q01DX001 (ip), vehicle: saline with Tween-80
  T/C: 91 % of control

## CC(=O)NCCN
endpoint: mean survival time, dose: 50.0 mg/kg/injection, schedule: Q04DX003 (ip), vehicle: saline
  T/C: 101 % of control
[12]
  T/C: 95 % of control
[13]
  T/C: 97 % of control

## CC(=O)Oc1c(C)[nH]ccc1=O
[2]
  T/C: 97 % of control
[3]
  T/C: 100 % of control
[4]
  T/C: 113 % of control and 107 % of control
[5]
  T/C: 100 % of control
[6]
  T/C: 118 % of control and 122 % of control
[7]
  T/C: 111 % of control
[8]
  T/C: 150 % of control
[9]
  T/C: 122 % of control
[23]
  T/C: 157 % of control

## OC(c1ccccc1)c1ccc2c(c1)CCC2 (stereo unspecified)
[16]
  T/C: 102 % of control
endpoint: mean survival time, dose: 200.0 mg/kg/injection, schedule: Q04DX003 (ip), vehicle: saline with Tween-80
  T/C: 98 % of control
endpoint: mean survival time, dose: 400.0 mg/kg/injection, schedule: Q04DX003 (ip), vehicle: saline with Tween-80
  T/C: 94 % of control

## CN(C(=O)Nc1cccc([N+](=O)[O-])c1)c1ccccc1
[24]
  T/C: 102 % of control
[25]
  T/C: 98 % of control
endpoint: mean survival time, dose: 400.0 mg/kg/injection, schedule: Q01DX001 (ip), vehicle: saline
  T/C: 98 % of control

## CC(O)c1ccc2c(c1)N(CCCN1CCN(CCO)CC1)c1ccccc1S2 (stereo unspecified)
[12]
  T/C: 97 % of control

## O=C(N/N=C/c1cc2c(cc1[N+](=O)[O-])OCO2)c1ccccc1
endpoint: mean survival time, dose: 12.5 mg/kg/injection, schedule: Q01DX009 (ip), vehicle: other
  T/C: 100 % of control
endpoint: mean survival time, dose: 25.0 mg/kg/injection, schedule: Q01DX009 (ip), vehicle: other
  T/C: 104 % of control
endpoint: mean survival time, dose: 50.0 mg/kg/injection, schedule: Q01DX009 (ip), vehicle: other
  T/C: 94 % of control
[26]
  T/C: 96 % of control
[27]
  T/C: 94 % of control

## O=C(O)c1c[nH]c2c(Cl)cccc2c1=O
[24]
  T/C: 102 % of control
[25]
  T/C: 100 % of control

## COc1cc2c(cc1OC)C(CCN1C(=O)CCC1=O)=NCC2
endpoint: mean survival time, dose: 50.0 mg/kg/injection, schedule: Q01DX009 (ip), vehicle: saline sonified
  T/C: 96 % of control
endpoint: mean survival time, dose: 100.0 mg/kg/injection, schedule: Q01DX009 (ip), vehicle: saline sonified
  T/C: 102 % of control
[10]
  T/C: 98 % of control
endpoint: mean survival time, dose: 200.0 mg/kg/injection, schedule: Q01DX009 (ip), vehicle: saline sonified
  T/C: 100 % of control
[11]
  T/C: 103 % of control

## [I][Pt+2][I].[NH-]c1cccc(F)c1.[NH-]c1cccc(F)c1
endpoint: mean survival time, dose: 3.13 mg/kg/injection, schedule: Q04DX003 (ip), vehicle: distilled water + Tween-80
  T/C: 102 % of control
endpoint: mean survival time, dose: 6.25 mg/kg/injection, schedule: Q04DX003 (ip), vehicle: distilled water + Tween-80
  T/C: 102 % of control
endpoint: mean survival time, dose: 12.5 mg/kg/injection, schedule: Q04DX003 (ip), vehicle: distilled water + Tween-80
  T/C: 106 % of control
endpoint: mean survival time, dose: 25.0 mg/kg/injection, schedule: Q04DX003 (ip), vehicle: distilled water + Tween-80
  T/C: 106 % of control
endpoint: mean survival time, dose: 50.0 mg/kg/injection, schedule: Q04DX003 (ip), vehicle: distilled water + Tween-80
  T/C: 112 % of control
endpoint: mean survival time, dose: 100.0 mg/kg/injection, schedule: Q04DX003 (ip), vehicle: distilled water + Tween-80
  T/C: 118 % of control

## O=c1ccn(CC(O)c2cc3ccccc3[nH]2)c(=O)[nH]1 (stereo unspecified)
[18]
  T/C: 112 % of control
[19]
  T/C: 112 % of control
[20]
  T/C: 108 % of control

## O=C(OC1C=CCC=C1)c1cc([N+](=O)[O-])cc([N+](=O)[O-])c1
[26]
  T/C: 101 % of control
[27]
  T/C: 95 % of control
endpoint: mean survival time, dose: 400.0 mg/kg/injection, schedule: Q01DX009 (ip), vehicle: other
  T/C: 93 % of control

Source: PubChem BioAssay AID256 (DTP/NCI, 2004)
